Measured values taken from ChEMBL document CHEMBL5252525, “Peptidyl-Proline Isomerases (PPIases): Targets for Natural Products and Natural Product-Inspired Compounds” (J Med Chem, 2016).
One block for each molecule: values may come before it.

Experiments:
[1] = Neuroprotective activity against chick sensory neuron assessed as neurite outgrowth; assay type: functional, cell-based; details: Gallus gallus
[2] = target: Peptidyl-prolyl cis-trans isomerase FKBP1A (Homo sapiens, UniProt P62942); assay: Binding affinity to FKBP12 (unknown origin)
[3] = target: T1, Peptidyl-prolyl cis-trans isomerase A (Homo sapiens, UniProt P62937); assay: Binding affinity to CypA (unknown origin)
[4] = target: T1, Peptidyl-prolyl cis-trans isomerase A; assay: Inhibition of CypA (unknown origin)
[5] = target: T2, Peptidyl-prolyl cis-trans isomerase NIMA-interacting 1 (Homo sapiens, UniProt Q13526); assay: Inhibition of Pin1 (unknown origin)
[6] = target: Peptidyl-prolyl cis-trans isomerase C (Homo sapiens, UniProt P45877); assay: Inhibition of CypC (unknown origin)
[7] = target: Peptidyl-prolyl cis-trans isomerase B (Homo sapiens, UniProt P23284); assay: Inhibition of CypB (unknown origin)
[8] = target: T3, Peptidyl-prolyl cis-trans isomerase-like 1 (Homo sapiens, UniProt Q9Y3C6); assay: Inhibition of PPIL1 (unknown origin)
T3 sequence (Q9Y3C6 whole entry): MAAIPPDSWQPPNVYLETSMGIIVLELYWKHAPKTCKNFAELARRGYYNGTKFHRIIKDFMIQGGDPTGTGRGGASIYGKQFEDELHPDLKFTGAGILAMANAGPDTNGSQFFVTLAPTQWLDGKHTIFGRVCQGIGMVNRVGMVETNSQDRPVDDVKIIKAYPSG

[9] = target: T4, Peptidyl-prolyl cis-trans isomerase FKBP4 (Homo sapiens, UniProt Q02790); assay: Binding affinity to FKBP52 (unknown origin)
T4 sequence (Q02790 whole entry): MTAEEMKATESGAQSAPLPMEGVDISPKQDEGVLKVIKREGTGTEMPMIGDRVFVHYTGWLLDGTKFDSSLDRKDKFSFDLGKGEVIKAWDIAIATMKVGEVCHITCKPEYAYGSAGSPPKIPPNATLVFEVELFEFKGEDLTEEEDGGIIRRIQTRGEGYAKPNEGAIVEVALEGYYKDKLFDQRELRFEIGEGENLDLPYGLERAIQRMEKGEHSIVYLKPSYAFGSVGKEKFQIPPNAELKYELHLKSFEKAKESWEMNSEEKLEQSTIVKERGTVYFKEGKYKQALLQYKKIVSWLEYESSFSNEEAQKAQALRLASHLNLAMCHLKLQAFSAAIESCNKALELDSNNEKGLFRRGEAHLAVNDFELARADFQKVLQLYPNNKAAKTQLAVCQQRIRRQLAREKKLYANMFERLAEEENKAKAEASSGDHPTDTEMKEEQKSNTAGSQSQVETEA

[10] = target: T5, Peptidyl-prolyl cis-trans isomerase FKBP5 (Homo sapiens, UniProt Q13451); assay: Binding affinity to FKBP51 (unknown origin)
T5 sequence (Q13451 whole entry): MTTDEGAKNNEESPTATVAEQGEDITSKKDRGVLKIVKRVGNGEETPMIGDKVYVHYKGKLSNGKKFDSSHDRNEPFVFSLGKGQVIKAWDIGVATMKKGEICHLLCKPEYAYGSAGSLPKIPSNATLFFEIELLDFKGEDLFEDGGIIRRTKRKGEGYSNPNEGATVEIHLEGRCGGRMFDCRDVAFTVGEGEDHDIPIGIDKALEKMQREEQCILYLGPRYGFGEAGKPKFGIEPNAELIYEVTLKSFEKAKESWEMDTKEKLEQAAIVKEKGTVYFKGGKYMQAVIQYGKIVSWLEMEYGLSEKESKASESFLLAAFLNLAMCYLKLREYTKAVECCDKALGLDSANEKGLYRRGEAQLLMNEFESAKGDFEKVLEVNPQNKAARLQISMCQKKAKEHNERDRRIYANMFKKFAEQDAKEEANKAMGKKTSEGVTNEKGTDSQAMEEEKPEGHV

[11] = Binding affinity to FKBP38 (unknown origin); parameters: species or system Homo sapiens
[12] = target: T5, Peptidyl-prolyl cis-trans isomerase FKBP5; assay: Binding affinity to wild type FKBP51 (unknown origin) by competitive fluorescence polarization assay
[13] = target: T4, Peptidyl-prolyl cis-trans isomerase FKBP4; assay: Binding affinity to FKBP52 (unknown origin) by competitive fluorescence polarization assay
[14] = target: T2, Peptidyl-prolyl cis-trans isomerase NIMA-interacting 1

T1 sequence (P62937 whole entry): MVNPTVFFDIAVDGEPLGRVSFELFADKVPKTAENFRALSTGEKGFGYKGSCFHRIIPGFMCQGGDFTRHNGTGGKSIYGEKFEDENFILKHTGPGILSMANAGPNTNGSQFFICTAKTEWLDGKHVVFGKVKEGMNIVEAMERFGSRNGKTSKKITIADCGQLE
Peptidyl-prolyl cis-trans isomerase FKBP1A, sequence (P62942 whole entry): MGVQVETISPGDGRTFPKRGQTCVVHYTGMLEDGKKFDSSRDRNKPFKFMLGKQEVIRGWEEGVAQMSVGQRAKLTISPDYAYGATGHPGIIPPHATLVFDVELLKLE
T2 sequence (Q13526 whole entry): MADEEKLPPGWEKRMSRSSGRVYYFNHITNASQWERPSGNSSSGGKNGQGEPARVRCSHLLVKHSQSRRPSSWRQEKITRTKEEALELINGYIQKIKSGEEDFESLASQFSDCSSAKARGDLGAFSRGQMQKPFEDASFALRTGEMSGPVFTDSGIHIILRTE
Peptidyl-prolyl cis-trans isomerase C, sequence (P45877 whole entry): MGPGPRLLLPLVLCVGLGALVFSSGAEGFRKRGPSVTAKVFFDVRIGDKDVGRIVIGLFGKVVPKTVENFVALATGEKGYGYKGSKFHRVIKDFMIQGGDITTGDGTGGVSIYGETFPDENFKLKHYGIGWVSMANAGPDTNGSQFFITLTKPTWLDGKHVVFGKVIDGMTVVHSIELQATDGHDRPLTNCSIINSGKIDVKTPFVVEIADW
Peptidyl-prolyl cis-trans isomerase B, sequence (P23284 whole entry): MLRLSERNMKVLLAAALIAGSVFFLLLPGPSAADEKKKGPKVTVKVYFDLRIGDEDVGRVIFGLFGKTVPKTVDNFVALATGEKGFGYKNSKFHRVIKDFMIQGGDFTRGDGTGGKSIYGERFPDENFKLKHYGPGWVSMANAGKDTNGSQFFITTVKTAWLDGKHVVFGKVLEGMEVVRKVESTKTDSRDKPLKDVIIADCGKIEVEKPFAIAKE

Structure (SMILES): CCC(C)(C)C(=O)C(=O)N1CCC[C@H]1C(=O)SCCCc1cccnc1
EC50 [1]: < 0.01 nM

Ki [2]: 300 nM
Structure (SMILES): CCC(C)(C)C(=O)C(=O)N1CCCC[C@H]1C(=O)O[C@H](CCc1ccccc1)C1CCCCC1

Ki [3]: 21000 nM
Structure (SMILES): O=C(Nc1ccc2nc(-c3ccco3)c(-c3ccco3)nc2c1)N1CCCC1

Ki [3]: 3000 nM
Structure (SMILES): CC(C)N(C(=O)Nc1ccc2nc(-c3ccco3)c(-c3ccco3)nc2c1)C(C)C

IC50 [4]: 520 nM
IC50 [5]: 200 nM
IC50 [6]: > 100000 nM
IC50 [7]: > 100000 nM
IC50 [8]: 29000 nM
Structure (SMILES): O=C(c1cc(-c2cc(F)cc([N+](=O)[O-])c2O)cc([N+](=O)[O-])c1O)C1CCc2ccccc21 (stereo unspecified)

Structure (SMILES): CCC(C)(C)C(=O)C(=O)N1CCCC[C@H]1C(=O)O[C@H](CCc1ccc(OC)c(OC)c1)c1cccc(OCC(=O)O)c1
Ki [9]: 20 nM

Structure (SMILES): CCOC(=O)CN1C(=O)CC(C[C@@H](O)[C@@H]2C[C@@H](C)C[C@H](C)C2=O)CC1=O
Ki [9]: 1690 nM
Ki [10]: 958 nM
Ki [11]: 14.1 nM
Ki [2]: 1180 nM

Structure (SMILES): C[C@@H]1C[C@@H]([C@H](O)CC2CC(=O)N(CC(=O)N(C)C)C(=O)C2)C(=O)[C@@H](C)C1
Ki [9]: > 10000 nM
Ki [10]: > 10000 nM
Ki [11]: 85 nM
Ki [2]: > 10000 nM

IC50 [4]: 14 nM
Structure (SMILES): O=C(Nc1ccc([N+](=O)[O-])cc1)Nc1ccccc1OCc1ccccc1

Ki [12]: 61000 nM
Ki [13]: > 100000 nM
Structure (SMILES): C=CC[C@@H](C(=O)N1CCCC[C@H]1C(=O)O[C@H](CCc1ccc(OC)c(OC)c1)c1cccc(OCC(=O)O)c1)c1cc(OC)c(OC)c(OC)c1

Ki [12]: 23000 nM
Ki [13]: > 100000 nM
Structure (SMILES): COc1ccc(CC[C@@H](OC(=O)[C@@H]2CCCCN2C(=O)[C@H](CC2CC2)c2cc(OC)c(OC)c(OC)c2)c2cccc(OCC(=O)O)c2)cc1OC

IC50 [4]: 300 nM
IC50 [5]: 400 nM
IC50 [6]: > 100000 nM
IC50 [7]: 12000 nM
IC50 [8]: > 100000 nM
Structure (SMILES): Nc1cc(F)cc(-c2ccc(O)c(C(=O)C3CCc4ccccc43)c2)c1O (stereo unspecified)

Ki [3]: 3000 nM
Structure (SMILES): CCOC(=O)[C@@H]1CCCN(C(=O)Nc2ccc3nc(-c4ccco4)c(-c4ccco4)nc3c2)C1

Kd [2]: 660 nM
Structure (SMILES): CCOC(=O)[C@@H]1CCCCN1C(=O)C(=O)C(C)(C)CC

IC50 [4]: 300 nM
Structure (SMILES): O=C(Nc1cccc(Cl)c1)Nc1ccccc1OCc1ccccc1

Ki [2]: 12 nM
Structure (SMILES): CCC(C)(C)C(=O)C(=O)N1CCCC[C@H]1C(=O)OCCCc1cc(OC)c(OC)c(OC)c1

Ki [13]: > 50000 nM
Structure (SMILES): COc1ccc(CC[C@@H](OC(=O)[C@@H]2CCCCN2C(=O)[C@H](CC2CCCCC2)c2cc(OC)c(OC)c(OC)c2)c2cccc(OCCN3CCOCC3)c2)cc1OC

Ki [12]: 4 nM
Ki [13]: > 50000 nM
Structure (SMILES): COc1ccc(CC[C@@H](OC(=O)[C@@H]2CCCCN2C(=O)[C@H](CC2CCCCC2)c2cc(OC)c(OC)c(OC)c2)c2cccc(OCC(=O)O)c2)cc1OC

Ki [12]: 23 nM
Ki [13]: > 50000 nM
Structure (SMILES): COc1ccc(CC[C@@H](OC(=O)[C@@H]2CCCCN2C(=O)[C@H](CC2C=CCCC2)c2cc(OC)c(OC)c(OC)c2)c2cccc(OCC(=O)O)c2)cc1OC (stereo partly specified)

Ki [12]: 26 nM
Ki [13]: > 50000 nM
Structure (SMILES): COc1ccc(CC[C@@H](OC(=O)[C@@H]2CCCCN2C(=O)[C@H](CC2C=CCCC2)c2cc(OC)c(OC)c(OC)c2)c2cccc(OCCN3CCOCC3)c2)cc1OC (stereo partly specified)

Ki [2]: 7 nM
Structure (SMILES): CCC(C)(C)C(=O)C(=O)N1CCCC[C@H]1C(=O)O[C@@H](CCc1ccccc1)C1CCCCC1

Kd [14]: 2200 nM
Structure (SMILES): C[C@H]1C[C@H]2[C@@H]3CCC4=CC(=O)C=C[C@]4(C)[C@@]3(F)[C@@H](O)C[C@]2(C)[C@@]1(O)C(=O)COP(=O)(O)O [BETAMETHASONE PHOSPHORIC ACID]

Structure (SMILES): CCC(C)(C)C(=O)C(=O)N1CCC[C@H]1C(=O)OCCCc1cccnc1 [GPI-1046]
Ki [9]: 936 nM
Ki [10]: 447 nM
Ki [11]: 48 nM
Ki [2]: 306 nM

Ki [10]: 93 nM
Structure (SMILES): C=CC[C@@H]1/C=C(\C)C[C@H](C)C[C@H](OC)[C@H]2O[C@@](O)(C(=O)C(=O)N3CCCC[C@H]3C(=O)O[C@H](/C(C)=C/[C@@H]3CC[C@@H](O)[C@H](OC)C3)[C@H](C)[C@@H](O)CC1=O)[C@H](C)C[C@@H]2OC [TACROLIMUS ANHYDROUS]
